Test results taken from article PMC8604796 (Computers in Biology and Medicine, 2021).
Like-named read-outs stand apart in the source and are kept apart here. Numbered stars: 1 amine (or outer) side, 2 acyl side, 3 side chain; on linkers, the order of the positions; unused ones are H or OH. Bridge positions count the residues as written; N and C are the ends. Square brackets hold non-standard residues; d marks the D form. Peptide text beside a SMILES is read from it. * marks the point of attachment. pTerphenylCO(4''-OnC5H11) = CCCCCOc1ccc(-c2ccc(-c3ccc(C(=O)*)cc3)cc2)cc1; Orn(4R-OH,5R-OH) = O=C([C@H](C[C@@H](O)[C@@H](O)N[*:3])N[*:1])[*:2]; hTyr(3S-OH,4S-OH) = N[C@H](C(=O)O)[C@H](O)[C@@H](O)c1ccc(O)cc1; Pro(3S-OH,4S-Me) = C[C@H]1CN[C@H](C(=O)O)[C@H]1O; Hyp = O=C(O)[C@@H]1C[C@@H](O)CN1

Tests used:
SARS-CoV-2 PLpro = SARS-CoV-2 PLpro (Severe acute respiratory syndrome coronavirus 2, UniProt P0DTD1); test: biochemical
SARS-CoV-2 virus = conditions: read-out: IC50, in-vitro antiviral activity against the SARS-CoV-2 virus; cited from earlier work

CO[C@H]1/C=C/O[C@@]2(C)Oc3c(C)c(O)c4c(O)c(c(/C=N/N5CCN(C6CCCC6)CC5)c(O)c4c3C2=O)NC(=O)/C(C)=C\C=C\[C@H](C)[C@H](O)[C@@H](C)[C@@H](O)[C@@H](C)[C@H](OC(C)=O)[C@@H]1C [Rifapentine]
IC50 (SARS-CoV-2 PLpro): 15.2 µM

CC(C)(C)[C@@H]1NC(=O)O[C@@H]2CCC[C@H]2OC/C=C/C(F)(F)c2nc3ccccc3nc2O[C@@H]2C[C@@H](C(=O)N[C@]3(C(=O)NS(=O)(=O)C4(C)CC4)C[C@H]3C(F)F)N(C2)C1=O [Glecaprevir]
IC50 (SARS-CoV-2 PLpro): 36.8 µM

Cc1cc2nc3c(=O)[nH]c(=O)nc-3n(C[C@H](O)[C@H](O)[C@H](O)COP(=O)(O)OP(=O)(O)OC[C@H]3O[C@@H](n4cnc5c(N)ncnc54)[C@H](O)[C@@H]3O)c2cc1C [FAD disodium]
IC50 (SARS-CoV-2 PLpro; read-out: IC50 against SARS-CoV-2 PLpro): 12.4 µM

CCCCCOc1ccc(-c2ccc(-c3ccc(C(=O)N[C@H]4C[C@@H](O)[C@@H](O)NC(=O)[C@@H]5[C@@H](O)[C@@H](C)CN5C(=O)[C@H]([C@@H](C)O)NC(=O)[C@H]([C@H](O)[C@@H](O)c5ccc(O)cc5)NC(=O)[C@@H]5C[C@@H](O)CN5C(=O)[C@H]([C@@H](C)O)NC4=O)cc3)cc2)cc1 [Anidulafungin] ({pTerphenylCO(4''-OnC5H11)}-[Orn(4R-OH,5R-OH)]T[Hyp][hTyr(3S-OH,4S-OH)]T[Pro(3S-OH,4S-Me)]; lactam 1-C)
inhibitory activity against PLpro (in words) (SARS-CoV-2 PLpro; Ubiquitin-Rhodamine 110 Gly fluorescence intensity assay): low inhibitory activity | IC50 (SARS-CoV-2 virus): 4.64 µM
